{"source": "patent US20250313575A1", "about": "“MACROCYCLES AS LRRK2 INHIBITORS, PHARMACEUTICAL COMPOSITIONS, AND USES THEREOF” (Merck Sharp & Dohme LLC, priority 2022, published 2025)", "data": [{"biological_target": "GST-tagged truncated human mutant G2019S LRRK2 (Homo sapiens (Human), UniProt Q5S007, G2019S)", "sequence (Q5S007 970-2527 G2019S)": "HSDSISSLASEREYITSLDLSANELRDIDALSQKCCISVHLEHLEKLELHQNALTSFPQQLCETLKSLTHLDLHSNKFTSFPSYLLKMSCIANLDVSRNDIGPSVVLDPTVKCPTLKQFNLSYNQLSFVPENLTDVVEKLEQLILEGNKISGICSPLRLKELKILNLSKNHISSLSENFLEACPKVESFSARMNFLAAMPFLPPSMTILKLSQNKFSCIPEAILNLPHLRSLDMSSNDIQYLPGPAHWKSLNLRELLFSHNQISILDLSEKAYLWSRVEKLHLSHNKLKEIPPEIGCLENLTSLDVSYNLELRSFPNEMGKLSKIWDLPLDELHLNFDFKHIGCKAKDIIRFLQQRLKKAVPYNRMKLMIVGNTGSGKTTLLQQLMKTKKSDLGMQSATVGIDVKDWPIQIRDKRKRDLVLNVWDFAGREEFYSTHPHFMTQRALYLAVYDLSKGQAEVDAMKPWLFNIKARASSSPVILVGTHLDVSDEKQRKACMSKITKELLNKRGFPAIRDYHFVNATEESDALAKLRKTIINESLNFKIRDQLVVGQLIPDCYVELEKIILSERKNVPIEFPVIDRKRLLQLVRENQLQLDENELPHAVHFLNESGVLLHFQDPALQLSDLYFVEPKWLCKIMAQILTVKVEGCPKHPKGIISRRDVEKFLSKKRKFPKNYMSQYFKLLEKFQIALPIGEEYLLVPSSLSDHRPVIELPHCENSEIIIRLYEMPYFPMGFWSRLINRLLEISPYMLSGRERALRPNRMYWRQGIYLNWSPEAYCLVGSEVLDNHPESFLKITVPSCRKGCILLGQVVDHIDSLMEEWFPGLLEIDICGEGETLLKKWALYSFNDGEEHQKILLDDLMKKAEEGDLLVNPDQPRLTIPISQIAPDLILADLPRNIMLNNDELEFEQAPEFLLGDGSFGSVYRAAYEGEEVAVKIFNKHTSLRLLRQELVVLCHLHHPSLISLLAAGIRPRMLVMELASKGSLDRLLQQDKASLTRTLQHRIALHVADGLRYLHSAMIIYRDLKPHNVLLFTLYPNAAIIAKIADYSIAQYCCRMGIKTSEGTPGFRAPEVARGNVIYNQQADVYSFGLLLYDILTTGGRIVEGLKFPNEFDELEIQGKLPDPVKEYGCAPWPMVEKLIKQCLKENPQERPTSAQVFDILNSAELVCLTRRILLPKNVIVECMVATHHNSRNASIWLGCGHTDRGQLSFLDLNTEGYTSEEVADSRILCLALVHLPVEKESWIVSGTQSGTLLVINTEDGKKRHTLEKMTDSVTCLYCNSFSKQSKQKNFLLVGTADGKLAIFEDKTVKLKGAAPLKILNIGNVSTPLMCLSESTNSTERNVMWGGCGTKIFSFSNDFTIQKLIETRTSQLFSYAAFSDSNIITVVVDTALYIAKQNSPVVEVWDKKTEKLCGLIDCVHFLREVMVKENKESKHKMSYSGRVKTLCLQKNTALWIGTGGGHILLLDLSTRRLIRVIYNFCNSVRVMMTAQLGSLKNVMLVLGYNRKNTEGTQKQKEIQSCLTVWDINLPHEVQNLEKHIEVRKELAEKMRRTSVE", "assay": "LRRK2 G2019S Km ATP LanthaScreen assay", "format": "biochemical", "details": "G2019S LRRK2, 134 μM ATP (Km ATP), LRRKtide substrate", "method": "(§1) Unless otherwise noted, all reactions are magnetically allowed to stir, diethyl ether used in the experiments described below is Fisher ACS certified material stabilized with BHT, and “concentrated” and/or “solvent removed under reduced pressure” means evaporating the solvent from a solution or mixture using a rotary evaporator or vacuum pump. Unless otherwise noted, flash chromatography is carried out on a Teledyne Isco (Lincoln, NE), Analogix (Burlington, WI), or Biotage (Stockholm, SWE) automated chromatography system using a commercially available cartridge as the column. Columns may be purchased from Teledyne Isco, Analogix, Biotage, Varian (Palo Alto, CA), or Supelco (Bellefonte, PA) and are usually filled with silica gel as the stationary phase. Reverse phase prep-HPLC conditions, where used, can be found at the end of each experimental section. Aqueous solutions were concentrated on a Genevac (Ipswich, ENG) or by freeze-drying/lyophilization. Unless otherwise noted, all LRRK2 pIC50 data presented in tables refers to the LRRK2 G2019S Km ATP LanthaScreen™ assay (Life Technologies Corp., Carlsbad, CA) that is described in the Biological Assay section.\n(§2) The LRRK2 kinase activity reported herein as IC50 values was determined with LanthaScreen™ technology from Life Technologies Corporation (Carlsbad, CA) using GST-tagged truncated human mutant G2019S LRRK2 in the presence of the fluorescein-labeled peptide substrate LRRKtide, also from Life Technologies. The data presented for the […] depending on the specific conditions and reagents used. Assays were performed in the presence of 134 μM ATP (Km ATP). Upon completion, the assay was stopped and phosphorylated substrate detected with a terbium (Tb)-labeled anti-pERM antibody (cat. no. PV4898). The compound dose response was prepared by diluting a 10 mM stock of compound to a maximum concentration of 9.99 μM in 100% dimethylsulfoxide followed by custom fold serial dilution in dimethylsulfoxide nine times. Twenty nanoliters of each dilution was spotted via a Labcyte Echo onto a 384-well black-sided plate (Corning 3575) followed by 15 μl of a 1.25 nM enzyme solution in 1× assay buffer (50 mM Tris pH 8.5, 10 mM MgCl2, 0.01% Brij-35, 1 mM EGTA, 2 mM dithiothreitol, 0.05 mM sodium orthovanadate). Following a 15-minute incubation at room temperature, the kinase reaction was started with the addition of 5 μl of 400 nM fluorescein-labeled LRRKtide peptide substrate and 134 μM ATP solution in 1× assay buffer. The reaction was allowed to progress at ambient temperature for 90 minutes. The reaction was then stopped by the addition of 20 μl of TR-FRET Dilution Buffer (Life Technologies, Carlsbad, CA) containing 2 nM Tb-labeled anti-phospho LRRKtide antibody and 10 mM EDTA (Life Technologies, Carlsbad, CA). After an incubation of 1 h at room temperature, the plate was read on an EnVision multimode plate reader (Perkin Elmer, Waltham, MA) with an excitation wavelength of 337 nm (Laser) and a reading emission at both 520 and 495 nm. Compound IC50s were interpolated from nonlinear regression best fits of the log of the final compound concentration, plotted as a function of the 520/495-nm emission ratio using Activity base. Abase uses a 4 parameter (4P) logistic fit based on the Levenberg-Marquardt algorithm.", "values": [{"smiles": "O[C@@H]1COCC1n1nc(C2CC2)c2c1OC[C@H]1CC[C@@H]1Nc1nc(ncc1C(F)(F)F)N2", "note": "(single isomer, unassigned) [Ex-6.3, (3R,4S)-4-((10aR,12aR)- or (3R,4S)-4-((10aS,12aS)- or (3S,4R)-4-((10aR,12aR)- or (3S,4R)-4-((10aR,12aR)-3-cyclopropyl-8-(trifluoromethyl)-10,10a,11,12,12a,13-hexahydro-5,9-(azeno)cyclobuta[k]pyrazolo[3,4-b][1]oxa[4,6,10]triazacyclotridecin-1 (4H)-yl)tetrahydrofuran-3-ol]", "LRRK2 pIC50": 7.29}, {"smiles": "Cc1c2c(nn1C1CC1)Nc1ncc(C(F)(F)F)c(n1)N[C@H](C)CCO2", "note": "(single isomer, unassigned) [Ex-17.2, (R)- or (S)-2-cyclopropyl-3,7-dimethyl-10-(trifluoromethyl)-2,5,6,7,8,14-hexahydro-9,13-(azeno)pyrazolo[4,3-b][1]oxa[4,6,10]triazacyclotridecine]", "LRRK2 pIC50": 8.24}, {"smiles": "CC(C)c1nn(C(C)(C)C#N)c2c1Nc1ncc(C3CC3)c(n1)N[C@@H]1COC[C@H]1CO2", "note": "[Ex-1.15, 2-((10aS,13aS)-8-cyclopropyl-3-isopropyl-10a,11,13a,14-tetrahydro-10H,13H-5,9-(azeno)furo[3,4-k]pyrazolo[3,4-b][1]oxa[4,6,10]triazacyclotridecin-1(4H)-yl)-2-methylpropanenitrile]", "LRRK2 pIC50": 8.27}, {"smiles": "Cc1nn(C(C)(C)C#N)c2c1Nc1ncc(C(F)(F)F)c(n1)N[C@@H]1CCC1CO2", "note": "(stereo partly drawn) [Ex-1.1, 2-Methyl-2-((10aR,12aR)-3-methyl-8-(trifluoromethyl)-10,10a,11,12,12a,13-hexahydro-5,9-(azeno)cyclobuta[k]pyrazolo[3,4-b][1]oxa[4,6,10]triazacyclotridecin-1 (4H)-yl)propanenitrile]", "LRRK2 pIC50": ">10.09"}, {"smiles": "Cc1nn(C2CC2(F)F)c2c1OCC1COCC1Nc1nc(ncc1C(F)(F)F)N2", "note": "[Ex-2.58, (10aS,13aS)-3-((R)-2,2-difluorocyclopropyl)-1-methyl-8-(trifluoromethyl)-3,4,10a,11,13a,14-hexahydro-10H,13H-5,9-(azeno)furo[3,4-k]pyrazolo[4,3-b][1]oxa[4,6,10]triazacyclotridecine (10aS,13aS)-3-((S)-2,2-difluorocyclopropyl)-1-methyl-8-(trifluoromethyl)-3,4,10a,11,13a,14-hexahydro-10H,13H-5,9-(azeno)furo[3,4-k]pyrazolo[4,3-b][1]oxa[4,6,10]triazacyclotridecine]", "LRRK2 pIC50": 8.78}, {"smiles": "CCOC(=O)[C@@H]1C[C@@H]1c1nn(C(C)C)c2c1OC[C@@H]1COC[C@H]1Nc1nc(ncc1C(F)(F)F)N2", "note": "[Ex-2.47, ethyl (1R,2S)- or ethyl (1S,2R)-2-((10aS,13aS)-3-isopropyl-8-(trifluoromethyl)-3,4,10a,11,13a,14-hexahydro-10H,13H-5,9-(azeno)furo[3,4-k]pyrazolo[4,3-b][1]oxa[4,6,10]triazacyclotridecin-1-yl)cyclopropane-1-carboxylate]", "LRRK2 pIC50": ">10.09"}, {"smiles": "Cc1nn(C2CCC2)c2c1OC[C@H]1COC[C@@H]1Nc1nc(ncc1C(F)(F)F)N2", "note": "(single isomer, unassigned) [Ex-2.26, (10aS,13aS)- or (10aR,13aR)-3-cyclobutyl-1-methyl-8-(trifluoromethyl)-3,4,10a,11,13a, 14-hexahydro-10H,13H-5,9-(azeno)furo[3,4-k]pyrazolo[4,3-b][1]oxa[4,6,10]triazacyclotridecine]", "LRRK2 pIC50": 6.77}, {"smiles": "Cc1nn(C2CCC2)c2c1OC1COC[C@@H]1CNc1nc(ncc1Cl)N2", "note": "(stereo partly drawn) [Ex-2.83, (11aR,14aR)- or (11aS,14aS) 8-chloro-3-cyclobutyl-1-methyl-3,4,10,11,11a,12,14,14a-octahydro-5,9-(azeno)furo[3,4-1]pyrazolo[4,3-b][1]oxa[4,6,10]triazacyclotridecine]", "LRRK2 pIC50": 5.76}, {"smiles": "Cc1nn2c(c1C)Nc1ncc(C(F)(F)F)c(n1)N[C@@H](C)CCC2", "note": "(single isomer, unassigned) [Ex-16.1, 8,14,15-Trimethyl-5-(trifluoromethyl)-8,9,10,11-tetrahydro-1H,7H-2,6-(azeno)pyrazolo[1,5-a][1,3,5,9]tetraazacyclotridecine]", "LRRK2 pIC50": 7.70}, {"smiles": "CC(C)(C#N)c1nn(C2CCC2)c2c1OC[C@H]1CC[C@@H]1Nc1nc(ncc1C(F)(F)F)N2", "note": "[Ex-2.52, 2-((10aS,12aS)- or 2-((10aR,12aR)-3-cyclobutyl-8-(trifluoromethyl)-3,4,10,10a,11,12,12a,13-octahydro-5,9-(azeno)cyclobuta[k]pyrazolo[4,3-b][1]oxa[4,6,10]triazacyclotridecin-1-yl)-2-methylpropanenitrile]", "LRRK2 pIC50": 5.96}, {"smiles": "Cn1nc(C2CC2)c2c1OCC1CCC1Nc1nc(ncc1C(F)(F)F)N2", "note": "[Ex-1.8, (10aR,12aS)- or (10aS,12aR)-3-cyclopropyl-1-methyl-8-(trifluoromethyl)-1,4,10,10a,11,12,12a,13-octahydro-5,9-(azeno)cyclobuta[k]pyrazolo-[3,4-b][1]oxa[4,6,10]triazacyclo-tridecine]", "LRRK2 pIC50": 5.94}, {"smiles": "OCc1nn(C2CCC2)c2c1OC[C@@H]1COC[C@H]1Nc1nc(ncc1C(F)(F)F)N2", "note": "[Ex-6.6, ((10aS,13aS)-3-cyclobutyl-8-(trifluoromethyl)-3,4,10a,11,13a,14-hexahydro-10H,13H-5,9-(azeno)furo[3,4-k]pyrazolo[4,3-b][1]oxa[4,6,10]triazacyclotridecin-1-yl)methanol]", "LRRK2 pIC50": ">10.09"}, {"smiles": "FC(F)(F)c1cnc2nc1N[C@@H]1COC[C@H]1COc1ccnc(Cl)c1N2", "note": "[Ex-15.5, (3aS,16aS)-11-chloro-6-(trifluoromethyl)-3a,4,16,16a-tetrahydro-1H,3H,10H-5,9-(azeno)furo[3,4-k]pyrido[4,3-b][1]oxa[4,6,10]triazacyclotridecine]", "LRRK2 pIC50": 9.90}, {"smiles": "N#CC1CC1c1nn(C2CCC2)c2c1OC[C@@H]1COC[C@H]1Nc1nc(ncc1C(F)(F)F)N2", "note": "(single isomer, unassigned) [Ex-2.51, (1R,2R)- or (1S,2S)-2-((10aS,13aS)-3-cyclobutyl-8-(trifluoromethyl)-3,4,10a,11,13a, 14-hexahydro-10H,13H-5,9-(azeno)furo[3,4-k]pyrazolo[4,3-b][1]oxa[4,6,10]triazacyclotridecin-1-yl)cyclopropane-1-carbonitrile]", "LRRK2 pIC50": 9.05}, {"smiles": "CC(C)c1nn(C(C)(C)CO)c2c1Nc1ncc(C(F)(F)F)c(n1)N[C@@H]1COC[C@H]1CO2", "note": "[Ex-7.5, 2-((10aS,13aS)-3-isopropyl-8-(trifluoromethyl)-10a,11,13a,14-tetrahydro-10H,13H-5,9-(azeno)furo[3,4-k]pyrazolo[3,4-b][1]oxa[4,6,10]triazacyclotridecin-1(4H)-yl)-2-methylpropan-1-ol]", "LRRK2 pIC50": ">10.09"}, {"smiles": "Cn1nc(C2CC2)c2c1OCC1COCC1Nc1nc(ncc1C(F)(F)F)N2", "note": "[Ex-1.6, (10aS,13aS)- or (10aR,13aR)-3-cyclopropyl-1-methyl-8-(trifluoromethyl)-1,4,10a,11,13a,14-hexahydro-10H,13H-5,9-(azeno)furo[3,4-k]pyrazolo[3,4-b][1]oxa[4,6,10]triazacyclotridecine]", "LRRK2 pIC50": 6.92}, {"smiles": "CC(C)(C#N)c1nn(C2CCC2)c2c1OC[C@@H]1COC[C@H]1Nc1nc(ncc1C(F)(F)F)N2", "note": "[Ex-2.48, 2-((10aS,13aS)-3-cyclobutyl-8-(trifluoromethyl)-3,4,10a,11,13a,14-hexahydro-10H,13H-5,9-(azeno)furo[3,4-k]pyrazolo[4,3-b][1]oxa[4,6,10]triazacyclotridecin-1-yl)-2-methylpropanenitrile]", "LRRK2 pIC50": ">10.09"}]}, {"biological_target": "GST-tagged truncated human mutant G2019S LRRK2 (Homo sapiens (Human), UniProt Q5S007, G2019S)", "assay": "LRRK2 G2019S Km ATP LanthaScreen assay", "format": "biochemical", "details": "G2019S LRRK2, 134 μM ATP (Km ATP), LRRKtide substrate; read-out: LRRK2 pIC50 (converted)", "method": "as §1, §2", "units": {"IC50": "nM"}, "values": [{"smiles": "Cc1nn(C2CCC2)c2c1OCC[C@H]1COCCN1c1nc(ncc1C(F)(F)F)N2", "note": "(single isomer, unassigned) [Ex-21.4, (R) or (S)-3-cyclobutyl-1-methyl-8-(trifluoromethyl)-3,4,11,12,14,14a,15,16-octahydro-5,9-(azeno)[1,4]oxazino[4,3-j]pyrazolo[4,3-b][1]oxa[4,6,10]triazacyclotridecine]", "IC50": 2450}]}]}
